Experimental data taken from paper PMC7497086, “Fluorophore‐Labeled Cyclic Nucleotides as Potent Agonists of Cyclic Nucleotide‐Regulated Ion Channels” (Chembiochem, 2020).

Key:
Assay type in all cases: biochemical
[1] = target: T1, Heterotetrameric CNGA2:A4:B1b channels (Rattus norvegicus, UniProt A0A8I5ZN27+Q00195+Q64359); assay: Patch-clamp activation of heterotetrameric olfactory CNGA2:A4:B1b channels, inside-out patches of Xenopus oocytes; conditions: inside-out patches, +10 mV
T1 construct: expressed in transfected cells; host or cells: Xenopus laevis oocytes injected with cRNA (CNGA2:CNGA4:CNGB1b at 2:1:1)
T1 sequence (Q64359 whole entry, one chain of several): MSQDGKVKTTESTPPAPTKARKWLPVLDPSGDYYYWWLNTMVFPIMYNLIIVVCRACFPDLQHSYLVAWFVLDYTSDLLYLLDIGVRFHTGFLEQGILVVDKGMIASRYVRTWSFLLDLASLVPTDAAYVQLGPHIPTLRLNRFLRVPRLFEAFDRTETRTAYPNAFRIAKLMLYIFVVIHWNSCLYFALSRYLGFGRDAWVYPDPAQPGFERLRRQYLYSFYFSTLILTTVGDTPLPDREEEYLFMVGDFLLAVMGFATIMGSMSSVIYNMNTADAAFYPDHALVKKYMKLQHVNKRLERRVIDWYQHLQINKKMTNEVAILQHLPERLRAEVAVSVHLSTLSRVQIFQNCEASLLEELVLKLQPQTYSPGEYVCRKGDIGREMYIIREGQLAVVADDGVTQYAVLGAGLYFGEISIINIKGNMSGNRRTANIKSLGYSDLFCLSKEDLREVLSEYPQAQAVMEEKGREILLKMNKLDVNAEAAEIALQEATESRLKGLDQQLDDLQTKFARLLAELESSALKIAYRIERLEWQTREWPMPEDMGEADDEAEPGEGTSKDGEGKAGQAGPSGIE
T1 sequence (A0A8I5ZN27 1-858 isoform A0A8I5ZN27-2, one chain of several): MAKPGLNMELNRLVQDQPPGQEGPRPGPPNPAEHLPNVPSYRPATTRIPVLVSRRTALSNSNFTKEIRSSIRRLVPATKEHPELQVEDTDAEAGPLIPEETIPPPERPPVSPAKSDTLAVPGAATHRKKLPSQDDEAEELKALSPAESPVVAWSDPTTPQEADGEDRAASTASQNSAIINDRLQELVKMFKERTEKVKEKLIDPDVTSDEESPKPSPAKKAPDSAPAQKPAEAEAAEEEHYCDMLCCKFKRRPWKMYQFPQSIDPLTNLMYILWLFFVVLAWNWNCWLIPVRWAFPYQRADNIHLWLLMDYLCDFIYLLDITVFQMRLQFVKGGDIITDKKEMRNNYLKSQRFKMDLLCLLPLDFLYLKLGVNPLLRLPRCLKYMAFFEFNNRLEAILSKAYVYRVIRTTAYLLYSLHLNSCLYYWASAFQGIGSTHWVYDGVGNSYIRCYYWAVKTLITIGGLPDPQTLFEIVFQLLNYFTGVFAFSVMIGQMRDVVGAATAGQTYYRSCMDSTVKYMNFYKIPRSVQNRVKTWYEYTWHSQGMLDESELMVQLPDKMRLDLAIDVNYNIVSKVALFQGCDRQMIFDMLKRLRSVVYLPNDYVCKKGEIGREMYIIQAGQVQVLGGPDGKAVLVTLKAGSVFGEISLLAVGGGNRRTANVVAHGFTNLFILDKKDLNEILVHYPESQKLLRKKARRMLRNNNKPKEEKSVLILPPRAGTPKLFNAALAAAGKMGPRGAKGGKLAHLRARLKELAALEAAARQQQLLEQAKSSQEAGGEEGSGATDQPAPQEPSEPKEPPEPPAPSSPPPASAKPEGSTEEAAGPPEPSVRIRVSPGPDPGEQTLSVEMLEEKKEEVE
Procedure: First, the effect of the compounds on olfactory CNG channels with natural composition was tested. […] To determine the potency of the ligands, full concentration‐activation relationships were generated. These relationships were fitted with Equation 1 (Experimental Section), yielding the concentration of half maximum activation (EC 50) and the Hill coefficient (H a).
(§1) Molecular biology and heterologous expression of CNG and HCN channels: The subunits CNGA2 (accession No. AF126808), CNGA4 (accession no. U12623) and CNGB1b (accession no. AF068572) of rat olfactory channels as well as mouse HCN2 channels (NM008226) were subcloned in front of the T7 promoter of pGEMHEnew. The corresponding cRNAs were produced with the mMESSAGE mMACHINE T7 Kit (Ambion, Austin, TX, USA).
(§2) Oocytes at stages IV and V were injected with 50–130 ng cRNA encoding either CNGA2, CNGA2 : CNGA4 : CNGB1b (2 : 1 : 1 ratio) or HCN2 channels either manually or mediated by an injection robot (RoboInject®). The injected oocytes were incubated at 18 °C for up to 6 days in Barth's medium containing (in mM) 84 NaCl, 1 KCl, 2.4 NaHCO3, 0.82 MgSO4, 0.41 CaCl2, 0.33 Ca(NO3)2, 7.5 TRIS, cefuroxime (4.0 μg/mL) and penicillin/streptomycin (100 μg/mL), pH 7.4.
(§3) Electrophysiology: Macroscopic currents were recorded in inside‐out patches of the oocytes expressing hundreds to several thousand of the desired channels by using the patch‐clamp technique. The patch pipettes were pulled from quartz tubing (P‐2000, Sutter Instrument, Novato, USA) with an outer and inner diameter of 1.0 and 0.7 mm (VITROCOM, New Jersey, USA). The corresponding pipette resistance was 0.9–2.3 MΩ. The bath and pipette solution contained (in mM): 150 KCl, 1 EGTA, 20 HEPES (pH 7.4) for CNG channel measurements. For HCN channel measurements the bath solution contained (in mM): 100 KCl, 10 EGTA, 10 HEPES (pH 7.2) and the pipette (in mM) 120 KCl, 10 HEPES, 1 CaCl2 (pH 7.2). All experiments were performed at room temperature by using an Axopatch 200B amplifier (Axon Instruments, Foster City, CA, USA). Electrophysiology was controlled by the Patchmaster‐software (HEKA Elektronik Dr. Schulze GmbH, Lambrecht, Germany). The sampling rate was 5 kHz and the filter implemented in the amplifier (4‐pole Bessel) was set to 2 kHz. Measurements in HCN2 channels were started 3.5 minutes after patch excision, to minimize run down phenomena.18 The solutions with the different ligand concentrations to be studied were applied by a multi‐barrel device to the patches with a flow rate of 0.8 to 1.2 mL/min. The concentration of the fluorescent ligands was verified by UV/Vis spectroscopy.
(§4) where I is the actual current amplitude and I max the maximum current amplitude at saturating concentration of each cyclic nucleotide. EC 50 is the ligand concentration generating half maximum current and H a the respective Hill coefficient.

[2] = target: T2, homotetrameric olfactory CNG channels (Rattus norvegicus, UniProt Q00195); assay: Confocal patch-clamp fluorometry (cPCF): ligand binding and activation, homotetrameric CNG channels; conditions: Figure 4B
T2 construct: expressed in transfected cells; host or cells: Xenopus laevis oocytes injected with CNGA2 cRNA
T2 sequence (Q00195 1-664): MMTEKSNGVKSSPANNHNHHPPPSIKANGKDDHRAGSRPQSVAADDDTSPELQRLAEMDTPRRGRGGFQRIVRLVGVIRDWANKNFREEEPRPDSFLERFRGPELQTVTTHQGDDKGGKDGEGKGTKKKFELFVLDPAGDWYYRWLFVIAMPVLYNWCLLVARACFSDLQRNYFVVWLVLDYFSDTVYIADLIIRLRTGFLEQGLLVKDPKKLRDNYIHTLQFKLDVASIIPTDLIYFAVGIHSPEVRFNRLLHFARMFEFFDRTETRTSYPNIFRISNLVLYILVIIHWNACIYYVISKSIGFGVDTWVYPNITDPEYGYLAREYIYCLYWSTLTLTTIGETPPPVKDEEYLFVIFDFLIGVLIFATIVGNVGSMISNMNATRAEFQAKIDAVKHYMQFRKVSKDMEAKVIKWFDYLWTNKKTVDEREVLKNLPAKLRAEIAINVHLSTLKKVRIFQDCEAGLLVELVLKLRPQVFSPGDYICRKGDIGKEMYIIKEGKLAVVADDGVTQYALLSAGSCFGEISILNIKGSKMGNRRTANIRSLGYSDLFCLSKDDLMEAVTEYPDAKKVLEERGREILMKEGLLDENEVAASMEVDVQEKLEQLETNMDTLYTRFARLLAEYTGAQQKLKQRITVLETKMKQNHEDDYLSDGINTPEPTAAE
Source text: (§5) As expected from the above data, the binding profile of 10 was similar for the two different types of ion channels, yielding similar BC 50 and H b values.
(§6) Confocal patch‐clamp fluorometry: Ionic current and binding of the fluorescent ligand in macropatches were simultaneously measured by cPCF as described before.2a, 2b The patch pipettes were pulled from borosilicate glass tubing with an outer and inner diameter of 2.0 and 1.0 mm (Hilgenberg GmbH, Malsfeld, Germany). After fire polishing, the corresponding pipette resistance was 0.7–1.2 MΩ. The bath and pipette solution contained (in mM): 150 KCl, 1 EGTA, 5 HEPES (pH 7.4) for CNG channel measurements. To distinguish the fluorescence of the unbound fluorescent ligand from that of the bound fluorescent ligands, the fluorescent dye DY647 was added to the bath solution at a concentration of 5 μM. The fluorescent ligand and DY647 were excited at 543 and 633 nm, respectively, with a HeNe laser system and an AchroGate beam splitter. Fluorescence intensity from the bath and pipette solution were normalized on each other and the surplus of the green fluorescence of the patch dome with respect to the red fluorescence was used to quantify the bound ligands. The actual relative fluorescence (F) was normalized in each patch with respect to the maximum relative fluorescence (F max) at a saturating concentration of the fluorescent ligand. […]

[3] = target: T3, Homotetrameric CNGA2 channels (Rattus norvegicus, UniProt Q00195); assay: Patch-clamp activation of homotetrameric CNGA2 channels, inside-out patches of Xenopus oocytes
T3 construct: expressed in transfected cells; host or cells: Xenopus laevis oocytes injected with CNGA2 cRNA
T3 sequence (Q00195 1-664): T2 sequence (Q00195 1-664)
Source text: Moreover, we studied the effect of the nucleotide derivatives on homotetrameric CNGA2 channels.
as §1, §2, §3, §4

[4] = target: T4, heterotetrameric olfactory CNG channels (Rattus norvegicus, UniProt A0A8I5ZN27+Q00195+Q64359); assay: Confocal patch-clamp fluorometry (cPCF): ligand binding and activation, heterotetrameric CNG channels; conditions: Figure 4A
T4 construct: expressed in transfected cells; host or cells: Xenopus laevis oocytes injected with cRNA (CNGA2:CNGA4:CNGB1b at 2:1:1)
T4 sequence (Q64359 whole entry, one chain of several): as the sequence (Q64359 whole entry, one chain of several) above
T4 sequence (A0A8I5ZN27 1-858 isoform A0A8I5ZN27-2, one chain of several): as the sequence (A0A8I5ZN27 1-858 isoform A0A8I5ZN27-2, one chain of several) above
Source text: as §5, §6

[5] = unit only in the axis title [10] (μM)

H a (Hill coefficient of activation) [1]: 2.32±0.16 | EC50 ([1]; concentration of half maximum activation): 0.63 ± 0.02 µM | Hb (Hill coefficient of binding, cPCF) [2]: 1.43 | EC50 [2, 5]: 1.17 ± 0.07 µM | EC 50 (in words) [3]: nanomolar range | H a (Hill coefficient of activation) ([3]; inside-out patches): 4.03±0.12 | EC50 ([3]; inside-out patches, concentration of half maximum activation): 0.65 ± 0.01 µM | Hb (Hill coefficient of binding, cPCF) [4]: 1.55 | EC50 [4, 5]: 1.03 ± 0.04 µM
Structure (SMILES): CC1(C)C2=C3C=C4C5=[N+](CCC4OC3CCN2c2ccc(CC(=O)NCCCCCc3ccc(Sc4nc6c(=O)[nH]c(N)nc6n4[C@@H]4O[C@@H]6COP(=O)(O)O[C@H]6[C@H]4O)cc3)cc21)c1ccc(S(=O)(=O)[O-])cc1C5(C)C (stereo partly drawn) [Compound 10]
